Experiments:
NPC1 KO mice = assay: Effect of GSK3 inhibitor on NPC1 KO mouse model; format: in vivo; conditions: LiCl 85 mg/kg or CHIR99021 20 mg/kg intraperitoneally daily from first week (b9: or same dose intragastrically)
Protocol: NPC1 KO mice are divided into three groups (a control group, a LiCl treatment group and a CHIR99021 treatment group), with five mice in each group. From the first week after birth, the mice in the LiCl treatment group and the CHIR99021 treatment group are intraperitoneally injected with LiCl (85 mg/kg) and CHIR99021 (20 mg/kg) per day respectively, the mice in the control group are intraperitoneally injected with normal saline, and the survival rate of the mice is continuously observed.
An NPC1 gene knock-out (KO) mouse preparation method: the NPC1 genes are knocked out by CRISPY_Cas9 to obtain NPC1−/−mice.
The NPC mouse model is prepared according to the method of Embodiment II, and LiCl (the dose of 85 mg/kg) or CRIR99021 (the dose of 20 mg/kg) is intraperitoneally injected every day from the first week.
The testing indexes are phenotypes of hematological and neurological systems, as well as symptoms and signs.

[1] = test system: NPC1 KD or NPC1 KO hematopoietic and neural stem cells; assay: Effect of GSK3 inhibitor on NP-C cell model (proliferation, stem cell self-renewal and differentiation); format: cell-based, mouse; conditions: for self-renewal and differentiation capacities of hematopoietic and neural stem cells: NPC1 KD or NPC1 KO cells, LiCl 10 MM, CHIR99021 3 uM
Protocol: 2) NPC1 gene expression knock-down (KD) human and mouse cells: lentivirus expressing human and mouse NPC1 shRNA is prepared, lentivirus infects human embryonic kidney 293T and Mouse Embryonic Fibroblast (MEF), positive infected cells are screened by puromycin, and qPCR and western blotting validate the effect of NPC1 gene expression knock-down, to obtain the NPC1 KD cell model.
According to the method of Embodiment I, NPC model cells are prepared, and hematopoietic stem cells and neural stem cells of the NPC1 KO mice are isolated.
Experimental procedures and measurement indexes are: treatment of NPC1 KD and NPC1 KO cells with GSK3 specific inhibitors, i.e., LiCl and CHIR99021, and observation of changes in cell proliferation and stern cell self-renewal and differentiation.

[2] = NPC1 KD hematopoietic stem cells, 10 mM LiCl

## Cc1c[nH]c(-c2cnc(NCCNc3ccc(C#N)cn3)nc2-c2ccc(Cl)cc2Cl)n1 [CHIR99021]
NPC1 KO mice
  hematopoietic function of the mice: significantly improved
  neurodegenerative change symptoms: significantly improved
[1]
  self-renewal and differentiation capacities of hematopoietic and neural stem cells: significantly improve

## [Cl-].[Li+] [LiCl]
NPC1 KO mice
  hematopoietic function of the mice: significantly improved
  neurodegenerative change symptoms: significantly improved
[1]; [2]
  increase of colony formation capacity: ≥ 30%
  increase of proliferation capacity of hematopoietic stem cells: ≥ 50%
[1]
  self-renewal and differentiation capacities of hematopoietic and neural stem cells: significantly improve
